According to PubChem BioAssay AID1918935 (Molecular Pharmacology Branch, DTP, NCI, 2023):

Tested on: 324938-238-R-J1-PDC complex spheroid viability
Assay: Anticancer human tumor 324938-238-R-J1-PDC patient-derived bladder carcinoma cell line growth inhibition
Conditions: for IC50: curve of first compound; for viability, T/C: stronger effect = lower value
Procedure, shortened: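 Drug combinations with the LSD1 inhibitor iadademstat tested on tumor cells co-cultured as spheroids with endothelial cells and mesenchymal stem cells. Concentrations descended in half-log increments from clinical Cmax or 10 microM.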

[1] = second compound 0.1 µM, first compound 0.0316 µM
[2] = second compound 0.1 µM, first compound 0.1 µM
[3] = second compound 0.1 µM, first compound 0.316 µM
[4] = second compound 0.1 µM, first compound 1 µM
[5] = second compound 0.1 µM, first compound 3.16 µM
[6] = second compound 0.1 µM, first compound 10 µM
[7] = second compound 0.316 µM, first compound 0.0316 µM
[8] = second compound 0.316 µM, first compound 0.1 µM
[9] = second compound 0.316 µM, first compound 0.316 µM
[10] = second compound 0.316 µM, first compound 1 µM
[11] = second compound 0.316 µM, first compound 3.16 µM
[12] = second compound 0.316 µM, first compound 10 µM
[13] = second compound 1 µM, first compound 0.0316 µM
[14] = second compound 1 µM, first compound 0.1 µM
[15] = second compound 1 µM, first compound 0.316 µM
[16] = second compound 1 µM, first compound 1 µM
[17] = second compound 1 µM, first compound 3.16 µM
[18] = second compound 1 µM, first compound 10 µM
[19] = second compound 3.16 µM, first compound 0.0316 µM
[20] = second compound 3.16 µM, first compound 0.1 µM
[21] = second compound 3.16 µM, first compound 0.316 µM
[22] = second compound 3.16 µM, first compound 1 µM
[23] = second compound 3.16 µM, first compound 3.16 µM
[24] = second compound 3.16 µM, first compound 10 µM
[25] = second compound 10 µM, first compound 0.0316 µM
[26] = second compound 10 µM, first compound 0.1 µM
[27] = second compound 10 µM, first compound 0.316 µM
[28] = second compound 10 µM, first compound 1 µM
[29] = second compound 10 µM, first compound 3.16 µM
[30] = second compound 10 µM, first compound 10 µM
[31] = second compound 0.1 µM, first compound 0.00316 µM
[32] = second compound 0.1 µM, first compound 0.01 µM
[33] = second compound 0.316 µM, first compound 0.00316 µM
[34] = second compound 0.316 µM, first compound 0.01 µM
[35] = second compound 1 µM, first compound 0.00316 µM
[36] = second compound 1 µM, first compound 0.01 µM
[37] = second compound 3.16 µM, first compound 0.00316 µM
[38] = second compound 3.16 µM, first compound 0.01 µM
[39] = second compound 10 µM, first compound 0.00316 µM
[40] = second compound 10 µM, first compound 0.01 µM
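Further: spheroids also contain HUVEC and human MSCs and agents combined with iadademstat; spheroids exposed to agents for 7 days before readout.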

For `CC(C)c1c(-c2ccccc2)nc2c(C#N)c[nH]n2c1=O` + NC1CC1c1ccc(-c2cccc(O)c2)cc1, the IC50 (second compound 0.1 µM) was > 10000 nM, the IC50 (second compound 0.316 µM) was > 10000 nM and the IC50 (second compound 1 µM) was > 10000 nM. For the same compound, the IC50 (second compound 3.16 µM) was > 10000 nM, the IC50 (second compound 10 µM) was > 10000 nM and the viability, T/C [1] was 104%. The viability, T/C [2] was 98.2%, the viability, T/C [3] was 101% and the viability, T/C [4] was 94%. The viability, T/C [5] was 90.8%, the viability, T/C [6] was 72.6% and the viability, T/C [7] was 82.9%. It also gave a viability, T/C [8] of 84.9%, a viability, T/C [9] of 87.2% and a viability, T/C [10] of 82.6%. The viability, T/C [11] was 88.7%, the viability, T/C [12] was 79.1% and the viability, T/C [13] was 85.7%. It also gave a viability, T/C [14] of 99.3%, a viability, T/C [15] of 85.4% and a viability, T/C [16] of 89.1%. The viability, T/C [17] was 81.7%, the viability, T/C [18] was 81% and the viability, T/C [19] was 86.7%. The viability, T/C [20] was 92.1%, the viability, T/C [21] was 86.5% and the viability, T/C [22] was 89.7%. The viability, T/C [23] was 82.7%, the viability, T/C [24] was 77.3% and the viability, T/C [25] was 89.5%. The viability, T/C [26] was 85.4%, the viability, T/C [27] was 86.9% and the viability, T/C [28] was 88.9%. It also gave a viability, T/C [29] of 89.3% and a viability, T/C [30] of 80.8%.
For `COc1ccc([C@@H](O)c2cc(-c3ncnc4cc(N5CCOCC5)ccc34)c(F)cc2Cl)nn1` + NC1CC1c1ccc(-c2cccc(O)c2)cc1, the IC50 (second compound 0.1 µM) was 1440 nM, the IC50 (second compound 0.316 µM) was 481 nM and the IC50 (second compound 1 µM) was 411 nM. It also gave an IC50 (second compound 3.16 µM) of 313 nM, an IC50 (second compound 10 µM) of 439 nM and a viability, T/C [1] of 82.3%. The viability, T/C [2] was 77.6%, the viability, T/C [3] was 65.2% and the viability, T/C [4] was 54%. It also gave a viability, T/C [5] of 41.5%, a viability, T/C [6] of 25.7% and a viability, T/C [7] of 71.3%. For the same compound, the viability, T/C [8] was 61.8%, the viability, T/C [9] was 52% and the viability, T/C [10] was 45.7%. The viability, T/C [11] was 34.9%, the viability, T/C [12] was 25% and the viability, T/C [13] was 63.6%. It also gave a viability, T/C [14] of 60.5%, a viability, T/C [15] of 49.6% and a viability, T/C [16] of 43.2%. For the same compound, the viability, T/C [17] was 37.5%, the viability, T/C [18] was 23.4% and the viability, T/C [19] was 62.6%. For the same compound, the viability, T/C [20] was 59.4%, the viability, T/C [21] was 49.4% and the viability, T/C [22] was 39.7%. It also gave a viability, T/C [23] of 35.3%, a viability, T/C [24] of 25.6% and a viability, T/C [25] of 64.2%. It also gave a viability, T/C [26] of 60.2%, a viability, T/C [27] of 55.6% and a viability, T/C [28] of 38.5%. For the same compound, the viability, T/C [29] was 32.7% and the viability, T/C [30] was 21.8%.
`CC[C@@]1(O)C(=O)OCc2c1cc1n(c2=O)Cc2cc3c(CN(C)C)c(O)ccc3nc2-1` + NC1CCC(NC2CC2c2ccccc2)CC1 showed an IC50 (second compound 0.1 µM) of 1.54 nM, an IC50 (second compound 0.316 µM) of 1.49 nM and an IC50 (second compound 1 µM) of 1.58 nM. The IC50 (second compound 3.16 µM) was 1.42 nM, the IC50 (second compound 10 µM) was 1.16 nM and the viability, T/C (second compound 0.1 µM, first compound 0.000316 µM) was 84.7%. For the same compound, the viability, T/C (second compound 0.1 µM, first compound 0.001 µM) was 64.7%, the viability, T/C [31] was 25.5% and the viability, T/C [32] was 9.38%. For the same compound, the viability, T/C [1] was 7.9%, the viability, T/C [2] was 8.7% and the viability, T/C (second compound 0.316 µM, first compound 0.000316 µM) was 82.5%. For the same compound, the viability, T/C (second compound 0.316 µM, first compound 0.001 µM) was 63.2%, the viability, T/C [33] was 25.3% and the viability, T/C [34] was 9.31%. The viability, T/C [7] was 9.04%, the viability, T/C [8] was 8.45% and the viability, T/C (second compound 1 µM, first compound 0.000316 µM) was 83.2%. The viability, T/C (second compound 1 µM, first compound 0.001 µM) was 66.3%, the viability, T/C [35] was 25.4% and the viability, T/C [36] was 8.84%. It also gave a viability, T/C [13] of 9.27%, a viability, T/C [14] of 8.86% and a viability, T/C (second compound 3.16 µM, first compound 0.000316 µM) of 74.5%. It also gave a viability, T/C (second compound 3.16 µM, first compound 0.001 µM) of 61.1%, a viability, T/C [37] of 24.9% and a viability, T/C [38] of 10.1%. The viability, T/C [19] was 8.96%, the viability, T/C [20] was 9.71% and the viability, T/C (second compound 10 µM, first compound 0.000316 µM) was 74.2%. The viability, T/C (second compound 10 µM, first compound 0.001 µM) was 53.7%, the viability, T/C [39] was 23.9% and the viability, T/C [40] was 9.28%. For the same compound, the viability, T/C [25] was 9.85% and the viability, T/C [26] was 9.19%.
For `COc1cc(C2c3cc4c(cc3C(OC3OC5COC(C)OC5C(O)C3O)C3COC(=O)C23)OCO4)cc(OC)c1O` (stereo not given) + NC1CCC(NC2CC2c2ccccc2)CC1, the IC50 (second compound 0.1 µM) was 56.7 nM, the IC50 (second compound 0.316 µM) was 54.8 nM and the IC50 (second compound 1 µM) was 51.3 nM. For the same compound, the IC50 (second compound 3.16 µM) was 54.7 nM, the IC50 (second compound 10 µM) was 83.3 nM and the viability, T/C (second compound 0.1 µM, first compound 0.00949 µM) was 83.9%. For the same compound, the viability, T/C (second compound 0.1 µM, first compound 0.03 µM) was 67%, the viability, T/C (second compound 0.1 µM, first compound 0.0949 µM) was 35.3% and the viability, T/C (second compound 0.1 µM, first compound 0.3 µM) was 22.2%. It also gave a viability, T/C (second compound 0.1 µM, first compound 0.949 µM) of 21.9%, a viability, T/C (second compound 0.1 µM, first compound 3 µM) of 9.11% and a viability, T/C (second compound 0.316 µM, first compound 0.00949 µM) of 84.9%. The viability, T/C (second compound 0.316 µM, first compound 0.03 µM) was 64.9%, the viability, T/C (second compound 0.316 µM, first compound 0.0949 µM) was 35.3% and the viability, T/C (second compound 0.316 µM, first compound 0.3 µM) was 23.4%. The viability, T/C (second compound 0.316 µM, first compound 0.949 µM) was 19%, the viability, T/C (second compound 0.316 µM, first compound 3 µM) was 10% and the viability, T/C (second compound 1 µM, first compound 0.00949 µM) was 76.4%. It also gave a viability, T/C (second compound 1 µM, first compound 0.03 µM) of 61.6%, a viability, T/C (second compound 1 µM, first compound 0.0949 µM) of 36.8% and a viability, T/C (second compound 1 µM, first compound 0.3 µM) of 22.6%. For the same compound, the viability, T/C (second compound 1 µM, first compound 0.949 µM) was 22.1%, the viability, T/C (second compound 1 µM, first compound 3 µM) was 10.1% and the viability, T/C (second compound 3.16 µM, first compound 0.00949 µM) was 71.8%. For the same compound, the viability, T/C (second compound 3.16 µM, first compound 0.03 µM) was 64%, the viability, T/C (second compound 3.16 µM, first compound 0.0949 µM) was 36.1% and the viability, T/C (second compound 3.16 µM, first compound 0.3 µM) was 27.1%. For the same compound, the viability, T/C (second compound 3.16 µM, first compound 0.949 µM) was 21.3%, the viability, T/C (second compound 3.16 µM, first compound 3 µM) was 12.1% and the viability, T/C (second compound 10 µM, first compound 0.00949 µM) was 67.4%. For the same compound, the viability, T/C (second compound 10 µM, first compound 0.03 µM) was 67.9%, the viability, T/C (second compound 10 µM, first compound 0.0949 µM) was 47.1% and the viability, T/C (second compound 10 µM, first compound 0.3 µM) was 23.8%. For the same compound, the viability, T/C (second compound 10 µM, first compound 0.949 µM) was 18.6% and the viability, T/C (second compound 10 µM, first compound 3 µM) was 13.2%.
`Nc1ncn(C2CC(O)C(CO)O2)c(=O)n1` (stereo not given) + NC1CCC(NC2CC2c2ccccc2)CC1 was tested, and the IC50 (second compound 0.1 µM) was 177 nM, the IC50 (second compound 0.316 µM) was 256 nM and the IC50 (second compound 1 µM) was 159 nM. It also gave an IC50 (second compound 3.16 µM) of 129 nM, an IC50 (second compound 10 µM) of 237 nM and a viability, T/C [31] of 71.8%. The viability, T/C [32] was 66%, the viability, T/C [1] was 59.3% and the viability, T/C [2] was 56.1%. It also gave a viability, T/C [3] of 44%, a viability, T/C [4] of 40.3% and a viability, T/C [33] of 74.9%. For the same compound, the viability, T/C [34] was 67.1%, the viability, T/C [7] was 68.4% and the viability, T/C [8] was 55.1%. The viability, T/C [9] was 45.6%, the viability, T/C [10] was 42% and the viability, T/C [35] was 73.2%. It also gave a viability, T/C [36] of 58.7%, a viability, T/C [13] of 60.4% and a viability, T/C [14] of 50.7%. It also gave a viability, T/C [15] of 46.2%, a viability, T/C [16] of 47% and a viability, T/C [37] of 61.9%. It also gave a viability, T/C [38] of 58.6%, a viability, T/C [19] of 54.3% and a viability, T/C [20] of 53.4%. It also gave a viability, T/C [21] of 44.5%, a viability, T/C [22] of 39.5% and a viability, T/C [39] of 63.5%. It also gave a viability, T/C [40] of 67.3%, a viability, T/C [25] of 57.9% and a viability, T/C [26] of 59.1%. For the same compound, the viability, T/C [27] was 45.2% and the viability, T/C [28] was 37%.
